Experimental data published in US20240132431A1, “METHOD FOR ALKYLATING ACIDIC FUNCTIONAL GROUP” (Chugai Seiyaku Kabushiki Kaisha, priority 2021, published 2024).

Target: T1, Bcl-2 protein (Recombinant Human Bcl-2 Protein) (Homo sapiens, UniProt P10415)
T1 construct: purchased Novus NBP2-34889
Test: Binding evaluation of mixture library compounds to Bcl-2 using AS-MS (affinity selection mass spectrometry)
Details: ASMS Ratio(%)=(A−C)/B×100; for ASMS ratio (%) n = 1: replicate n = 1; for ASMS ratio (%) n = 2: replicate n = 2
Method in brief: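 Affinity selection MS: Bcl-2 20 μM + 1200-cpd mixture, […]/cpd, Tris pH 7.4 buffer w/ Tween-20, DTT; 1 h 23° C dark; P-2 spin SEC; MeCN/MeOH extraction; RP LC/MS. ASMS Ratio(%) = (A−C)/B×100.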

[1] = AS-MS on the mixture of 1200 library compounds

T1 sequence (P10415 whole entry): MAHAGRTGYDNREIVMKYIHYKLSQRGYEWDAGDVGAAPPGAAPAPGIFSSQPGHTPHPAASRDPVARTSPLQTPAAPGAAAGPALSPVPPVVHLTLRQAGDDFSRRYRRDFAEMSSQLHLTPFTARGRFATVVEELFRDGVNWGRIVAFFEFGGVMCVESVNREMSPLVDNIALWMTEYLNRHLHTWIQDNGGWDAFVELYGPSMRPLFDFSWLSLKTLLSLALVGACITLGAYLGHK

## CCOc1cccc(-c2ccccc2CN2CCN(c3ccc(C(=O)N(CC)CC)cc3)CC2)c1 [B4J045-01, 4-[4-[[2-(3-Ethoxyphenyl)phenyl]methyl]piperazin-1-yl]-N,N-diethylbenzamide]
[1]
  ASMS ratio (%) n = 1: 1.1%
  ASMS ratio (%) n = 2: 0.3%

## CCOc1cncc(-c2ccccc2CN2CCN(c3ccc(C(=O)N(CC)CC)cc3)CC2)c1 [B4J046-01]
[1]
  ASMS ratio (%) n = 1: 0.0%
  ASMS ratio (%) n = 2: 0.0%

## CCOc1cccc(-c2ccc(CN3CCN(c4ccc(C(=O)N(CC)CC)cc4)CC3)cc2C)c1 [B4J047-01, 4-[4-[[4-(3-Ethoxyphenyl)-3-methylphenyl]methyl]piperazin-1-yl]-N,N-diethylbenzamide]
[1]
  ASMS ratio (%) n = 1: −6.6%
  ASMS ratio (%) n = 2: 0.0%

## CCOc1cncc(-c2ccc(CN3CCN(c4ccc(C(=O)N(CC)CC)cc4)CC3)cc2C)c1 [B4J048-01, 4-[4-[[4-(5-Ethoxypyridin-3-yl)-3-methylphenyl]methyl]piperazin-1-yl]-N,N-diethylbenzamide]
[1]
  ASMS ratio (%) n = 1: 1.2%
  ASMS ratio (%) n = 2: −2.1%

## CCOc1cccc(-c2ccc(CN3CCN(c4ccc(C(=O)N(CC)CC)cc4)CC3)c(CC)c2)c1 [B4J049-01, 4-[4-[[4-(3-Ethoxyphenyl)-2-ethylphenyl]methyl]piperazin-1-yl]-N,N-diethylbenzamide]
[1]
  ASMS ratio (%) n = 1: 7.1%
  ASMS ratio (%) n = 2: −1.4%

## CCOc1cncc(-c2ccc(CN3CCN(c4ccc(C(=O)N(CC)CC)cc4)CC3)c(CC)c2)c1 [B4J050-01, 4-[4-[[4-(5-Ethoxypyridin-3-yl)-2-ethylphenyl]methyl]piperazin-1-yl]-N,N-diethylbenzamide]
[1]
  ASMS ratio (%) n = 1: 2.1%
  ASMS ratio (%) n = 2: 0.6%

## CCOc1cccc(-c2ccc(CN3CCN(c4ccc(C(=O)N(CC)CC)cc4)CC3)cc2F)c1 [B4J051-01, 4-[4-[[4-(3-Ethoxyphenyl)-3-fluorophenyl]methyl]piperazin-1-yl]-N,N-diethylbenzamide]
[1]
  ASMS ratio (%) n = 1: −9.6%
  ASMS ratio (%) n = 2: −10.2%

## CCOc1cncc(-c2ccc(CN3CCN(c4ccc(C(=O)N(CC)CC)cc4)CC3)cc2F)c1 [B4J052-01]
[1]
  ASMS ratio (%) n = 1: 0.5%
  ASMS ratio (%) n = 2: −1.5%

## CCOc1cccc(-c2ccc(CN3CCN(c4ccc(C(=O)N(CC)CC)cc4)CC3)c(OC)c2)c1 [B4J053-01, 4-[4-[[4-(3-Ethoxyphenyl)-2-methoxyphenyl]methyl]piperazin-1-yl]-N,N-diethylbenzamide]
[1]
  ASMS ratio (%) n = 1: −0.1%
  ASMS ratio (%) n = 2: −6.0%

## CCOc1cncc(-c2ccc(CN3CCN(c4ccc(C(=O)N(CC)CC)cc4)CC3)c(OC)c2)c1 [B4J054-01, 4-[4-[[4-(5-Ethoxypyridin-3-yl)-2-methoxyphenyl]methyl]piperazin-1-yl]-N,N-diethylbenzamide]
[1]
  ASMS ratio (%) n = 1: 0.0%
  ASMS ratio (%) n = 2: −1.1%

## CCOc1cccc(-c2cc(CN3CCN(c4ccc(C(=O)N(CC)CC)cc4)CC3)cc(OCC)c2)c1 [B4J055-01, 4-[4-[[3-Ethoxy-5-(3-ethoxyphenyl)phenyl]methyl]piperazin-1-yl]-N,N-diethylbenzamide]
[1]
  ASMS ratio (%) n = 1: −0.7%
  ASMS ratio (%) n = 2: 1.4%

## CCOc1cncc(-c2cc(CN3CCN(c4ccc(C(=O)N(CC)CC)cc4)CC3)cc(OCC)c2)c1 [B4J056-01]
[1]
  ASMS ratio (%) n = 1: −1.4%
  ASMS ratio (%) n = 2: −1.5%

## CCOc1cccc(-c2cc(CN3CCN(c4ccc(C(=O)N(CC)CC)cc4)CC3)cc(OC(C)C)c2)c1 [B4J057-01, 4-[4-[[3-(3-Ethoxyphenyl)-5-propan-2-yloxyphenyl]methyl]piperazin-1-yl]-N,N-diethylbenzamide]
[1]
  ASMS ratio (%) n = 1: 5.3%
  ASMS ratio (%) n = 2: −0.1%

## CCOc1cncc(-c2cc(CN3CCN(c4ccc(C(=O)N(CC)CC)cc4)CC3)cc(OC(C)C)c2)c1 [B4J058-01, 4-[4-[[3-(5-Ethoxypyridin-3-yl)-5-propan-2-yloxyphenyl]methyl]piperazin-1-yl]-N,N-diethylbenzamide]
[1]
  ASMS ratio (%) n = 1: 2.2%
  ASMS ratio (%) n = 2: 0.5%

## CCOc1cccc(-c2cc(CN3CCN(c4ccc(C(=O)N(CC)CC)cc4)CC3)cc(C(F)(F)F)c2)c1 [B4J061-01, 4-[4-[[3-(3-Ethoxyphenyl)-5-(trifluoromethyl)phenyl]methyl]piperazin-1-yl]-N,N-diethylbenzamide]
AS-MS, mixture library, Bcl-2
  ASMS ratio (%) n = 1: 1.6%
  ASMS ratio (%) n = 2: −1.8%

## CCOc1cncc(-c2cc(CN3CCN(c4ccc(C(=O)N(CC)CC)cc4)CC3)cc(C(F)(F)F)c2)c1 [B4J062-01, 4-[4-[[3-(5-Ethoxypyridin-3-yl)-5-(trifluoromethyl)phenyl]methyl]piperazin-1-yl]-N,N-diethylbenzamide]
AS-MS, mixture library, Bcl-2
  ASMS ratio (%) n = 1: 0.0%
  ASMS ratio (%) n = 2: 0.0%

## CCOc1cccc(-c2cc(CN3CCN(c4ccc(C(=O)N(CC)CC)cc4)CC3)cc(OC(F)(F)F)c2)c1 [B4J063-01, 4-[4-[[3-(3-Ethoxyphenyl)-5-(trifluoromethoxy)phenyl]methyl]piperazin-1-yl]-N,N-diethylbenzamide]
AS-MS, mixture library, Bcl-2
  ASMS ratio (%) n = 1: 4.5%
  ASMS ratio (%) n = 2: 0.1%

## CCOc1cncc(-c2cc(CN3CCN(c4ccc(C(=O)N(CC)CC)cc4)CC3)cc(OC(F)(F)F)c2)c1 [B4J064-01, 4-[4-[[3-(5-Ethoxypyridin-3-yl)-5-(trifluoromethoxy)phenyl]methyl]piperazin-1-yl]-N,N-diethylbenzamide]
AS-MS, mixture library, Bcl-2
  ASMS ratio (%) n = 1: 1.6%
  ASMS ratio (%) n = 2: 0.0%

## CCOc1cccc(-c2ccc(CN3CCN(c4ccc(C(=O)N(CC)CC)cc4)CC3)c3ccccc23)c1 [B4J065-01, 4-[4-[[4-(3-Ethoxyphenyl)naphthalen-1-yl]methyl]piperazin-1-yl]-N,N-diethylbenzamide]
AS-MS, mixture library, Bcl-2
  ASMS ratio (%) n = 1: 0.0%
  ASMS ratio (%) n = 2: 0.0%

## CCOc1cncc(-c2ccc(CN3CCN(c4ccc(C(=O)N(CC)CC)cc4)CC3)c3ccccc23)c1 [B4J066-01, 4-[4-[[4-(5-Ethoxypyridin-3-yl)naphthalen-1-yl]methyl]piperazin-1-yl]-N,N-diethylbenzamide]
AS-MS, mixture library, Bcl-2
  ASMS ratio (%) n = 1: 0.0%
  ASMS ratio (%) n = 2: −1.5%

## CCOc1cccc(-c2csc(CN3CCN(c4ccc(C(=O)N(CC)CC)cc4)CC3)c2)c1 [B4J067-01, 4-[4-[[4-(3-Ethoxyphenyl)thiophen-2-yl]methyl]piperazin-1-yl]-N,N-diethylbenzamide]
AS-MS, mixture library, Bcl-2
  ASMS ratio (%) n = 1: −11.0%
  ASMS ratio (%) n = 2: −5.5%

## CCOc1cncc(-c2csc(CN3CCN(c4ccc(C(=O)N(CC)CC)cc4)CC3)c2)c1 [B4J068-01, 4-[4-[[4-(5-Ethoxypyridin-3-yl)thiophen-2-yl]methyl]piperazin-1-yl]-N,N-diethylbenzamide]
AS-MS, mixture library, Bcl-2
  ASMS ratio (%) n = 1: 0.7%
  ASMS ratio (%) n = 2: 0.0%

## CCOc1cccc(C#Cc2ccccc2CN2CCN(c3ccc(C(=O)N(CC)CC)cc3)CC2)c1 [B4J069-01, 4-[4-[[2-[2-(3-Ethoxyphenyl)ethynyl]phenyl]methyl]piperazin-1-yl]-N,N-diethylbenzamide]
AS-MS, mixture library, Bcl-2
  ASMS ratio (%) n = 1: 1.8%
  ASMS ratio (%) n = 2: −0.8%

## CCOc1cncc(C#Cc2ccccc2CN2CCN(c3ccc(C(=O)N(CC)CC)cc3)CC2)c1 [B4J070-01]
AS-MS, mixture library, Bcl-2
  ASMS ratio (%) n = 1: 0.0%
  ASMS ratio (%) n = 2: 0.0%

## CCOc1cccc(-c2ccccc2CN2CCN(c3ccc(C(=O)N(CC)CC)nn3)CC2)c1 [B4J071-01]
AS-MS, mixture library, Bcl-2
  ASMS ratio (%) n = 1: 0.4%
  ASMS ratio (%) n = 2: −0.5%

## CCOc1cncc(-c2ccccc2CN2CCN(c3ccc(C(=O)N(CC)CC)nn3)CC2)c1 [B4J072-01, 6-[4-[[2-(5-Ethoxypyridin-3-yl)phenyl]methyl]piperazin-1-yl]-N,N-diethylpyridazine-3-carboxamide]
AS-MS, mixture library, Bcl-2
  ASMS ratio (%) n = 1: −1.6%
  ASMS ratio (%) n = 2: 0.9%

## CCOc1cccc(-c2ccc(CN3CCN(c4ccc(C(=O)N(CC)CC)nn4)CC3)cc2C)c1 [B4J073-01, 6-[4-[[4-(3-Ethoxyphenyl)-3-methylphenyl]methyl]piperazin-1-yl]-N,N-diethylpyridazine-3-carboxamide]
AS-MS, mixture library, Bcl-2
  ASMS ratio (%) n = 1: 2.1%
  ASMS ratio (%) n = 2: 0.0%

## CCOc1cncc(-c2ccc(CN3CCN(c4ccc(C(=O)N(CC)CC)nn4)CC3)cc2C)c1 [B4J074-01, 6-[4-[[4-(5-Ethoxypyridin-3-yl)-3-methylphenyl]methyl]piperazin-1-yl]-N,N-diethylpyridazine-3-carboxamide]
AS-MS, mixture library, Bcl-2
  ASMS ratio (%) n = 1: 0.0%
  ASMS ratio (%) n = 2: 0.0%

## CCOc1cccc(-c2ccc(CN3CCN(c4ccc(C(=O)N(CC)CC)nn4)CC3)c(CC)c2)c1 [B4J075-01, 6-[4-[[4-(3-Ethoxyphenyl)-2-ethylphenyl]methyl]piperazin-1-yl]-N,N-diethylpyridazine-3-carboxamide]
AS-MS, mixture library, Bcl-2
  ASMS ratio (%) n = 1: 0.0%
  ASMS ratio (%) n = 2: 0.0%

## CCOc1cncc(-c2ccc(CN3CCN(c4ccc(C(=O)N(CC)CC)nn4)CC3)c(CC)c2)c1 [B4J076-01, 6-[4-[[4-(5-Ethoxypyridin-3-yl)-2-ethylphenyl]methyl]piperazin-1-yl]-N,N-diethylpyridazine-3-carboxamide]
AS-MS, mixture library, Bcl-2
  ASMS ratio (%) n = 1: 0.0%
  ASMS ratio (%) n = 2: 0.0%

## CCOc1cccc(-c2ccc(CN3CCN(c4ccc(C(=O)N(CC)CC)nn4)CC3)cc2F)c1 [B4J077-01, 6-[4-[[4-(3-Ethoxyphenyl)-3-fluorophenyl]methyl]piperazin-1-yl]-N,N-diethylpyridazine-3-carboxamide]
AS-MS, mixture library, Bcl-2
  ASMS ratio (%) n = 1: 1.2%
  ASMS ratio (%) n = 2: −5.5%

## CCOc1cncc(-c2ccc(CN3CCN(c4ccc(C(=O)N(CC)CC)nn4)CC3)cc2F)c1 [B4J078-01, 6-[4-[[4-(5-Ethoxypyridin-3-yl)-3-fluorophenyl]methyl]piperazin-1-yl]-N,N-diethylpyridazine-3-carboxamide]
AS-MS, mixture library, Bcl-2
  ASMS ratio (%) n = 1: −0.5%
  ASMS ratio (%) n = 2: 0.9%
